Legend:
MtbIMPDH2ΔCBS [1] = molecular target: T1, MtbIMPDH2ΔCBS (Mycobacterium tuberculosis, UniProt P9WKI7, DEL126-250/R252G); type: biochemical
MtbIMPDH2ΔCBS [2] = molecular target: T1, MtbIMPDH2ΔCBS; type: biochemical; remark: listed apart in the source

With `NC(=O)c1ccc[n+]([C@@H]2O[C@H](COP(=O)([O-])OP(=O)(O)OC[C@H]3O[C@@H](n4cnc5c(N)ncnc54)[C@H](O)[C@@H]3O)[C@@H](O)[C@H]2O)c1` [NAD+] the “Kii (NAD+)” value (MtbIMPDH2ΔCBS [1]) was 16 ± 1 mM.

In the case of `C[C@H](Nc1cccc(Cl)c1Cl)C(=O)Nc1ccc2oc(-c3ccncc3)nc2c1` [Q67], the “mechanism of inhibition vs. IMP” value (MtbIMPDH2ΔCBS [2]) is reported as 17 ± 9 (UC), the “mechanism of inhibition vs. NAD^+” value (MtbIMPDH2ΔCBS [2]) is reported as 7 ± 7 (C) and the “mechanism of inhibition with respect to IMP” value (MtbIMPDH2ΔCBS [2]) is reported as “uncompetitive”. The “mechanism of inhibition with respect to NAD+” value (MtbIMPDH2ΔCBS [2]) was “competitive”.

In the case of `COc1c(C)c2c(c(O)c1C/C=C(\C)Cn1cc(COC[C@H]3O[C@@H](n4cnc5c(N)ncnc54)[C@H](O)[C@@H]3O)nn1)C(=O)OC2` [MAD1, reference compound], the “mechanism of inhibition vs. IMP” value (MtbIMPDH2ΔCBS [2]) is reported as 1000 ± 50 (UC), the “mechanism of inhibition vs. NAD^+” value (MtbIMPDH2ΔCBS [2]) is reported as 1400 ± 100 (UC) and the “mechanism of inhibition with respect to IMP” value (MtbIMPDH2ΔCBS [2]) is reported as “uncompetitive”. The “mechanism of inhibition with respect to NAD+” value (MtbIMPDH2ΔCBS [2]) was “uncompetitive”.

`C=C(C)c1cccc(C(C)(C)NC(=O)Nc2ccc(Cl)c(C(=O)N(C)C)c2)c1` [P41] was tested, and the “mechanism of inhibition vs. IMP” value (MtbIMPDH2ΔCBS [2]) was 9 ± 4 (UC), the “mechanism of inhibition vs. NAD^+” value (MtbIMPDH2ΔCBS [2]) was 13 ± 4 (NC) and the “mechanism of inhibition with respect to IMP” value (MtbIMPDH2ΔCBS [2]) was “uncompetitive”. The “mechanism of inhibition with respect to NAD+” value (MtbIMPDH2ΔCBS [2]) was “noncompetitive”.

From PMC4594927 (PLoS ONE, 2015)
